Test results as given in patent US20150368655A1, “TRANSFORMED EUGLENA AND PROCESS FOR PRODUCING SAME” (OSAKA PREFECTURE UNIVERSITY PUBLIC CORPORATION, priority 2012, published 2015).
In brackets after ≈: the same amount, converted by molar mass.

Tested on: Euglena wild strain
Assay: Growth inhibition / drug sensitivity of the Euglena wild strain in KH medium
Type: cell-based, Euglena gracilis
Description: Euglena gracilis Klebs Z strain (hereafter, “Euglena wild strain”), which has chloroplasts, was used.
Koren-Hutner medium (KH medium) was used as a heterotrophic medium (Table 1). 150 ml of the KH medium adjusted to a pH of 6.8 was placed in a 500 ml Sakaguchi flask and sterilized by autoclaving at 121° C. for 15 minutes. 1 ml of Euglena that reached the stationary phase by culturing for about 4 to 7 days (10 to 15×10^6 cells/ml) was inoculated into the medium, followed by culture with shaking at 27° C. under continuous light conditions for 24 hours. A plate medium was prepared by adding 1.0%(w/v) of agar powder.
The minimum inhibitory concentration of zeocin for the Euglena wild strain in a medium at a pH of 6.8 was examined. […] The growth inhibition was observed even when the number of cells at the start of culture was relatively large (2.0×10^6 cells/ml in a liquid medium, 2.0×10^6 cells/plate in a plate medium).
The influence of cefotaxime, which is used to remove Agrobacterium, on the growth of Euglena in transformation by the Agrobacterium method was examined. The results reveal that cefotaxime had no influence on the growth of the Euglena wild strain to at least 500 μg/ml (FIG. 8). Thus, a selective medium containing cefotaxime was used.

## CN[C@@H]1[C@@H](O)[C@@H](O[C@@H]2[C@@H](O)[C@H](O[C@H]3O[C@H]([C@@H](C)O)[C@@H](O)[C@H](O)[C@H]3N)[C@@H](N)C[C@H]2N)OC[C@]1(C)O [G418]
As the concentrations increased (FIGS. 9 and 10)
  Growth of the Euglena wild strain: inhibited the growth

## Cc1c(N)nc([C@H](CC(N)=O)NC[C@H](N)C(N)=O)nc1C(=O)N[C@H](C(=O)N[C@H](C)[C@@H](O)[C@H](C)C(=O)N[C@H](C(=O)NCCC1=N[C@@H](c2nc(C(=O)NCCCCN=C(N)N)cs2)CS1)[C@@H](C)O)[C@@H](O[C@@H]1O[C@@H](CO)[C@@H](O)[C@H](O)[C@@H]1O[C@H]1O[C@H](CO)[C@@H](O)[C@H](OC(N)=O)[C@@H]1O)c1cnc[nH]1 [zeocin]
Liquid medium, pH of 6.8
  Minimum inhibitory concentration (growth completely inhibited): 50 µg/mL (≈ 35 µM)
Medium containing 100 μg/ml of zeocin, liquid medium (FIG. 5) or plate medium (FIG. 6)
  Growth of the Euglena wild strain: almost completely inhibited
Plate medium, pH of 6.8
  Minimum inhibitory concentration (growth nearly inhibited): 25 µg/mL (≈ 17.5 µM)

## CO/N=C(\C(=O)N[C@@H]1C(=O)N2C(C(=O)O)=C(COC(C)=O)CS[C@H]12)c1csc(N)n1 [cefotaxime]
To at least 500 μg/ml (FIG. 8)
  Influence on the growth of the Euglena wild strain: no influence
